According to patent US20050182025A1, “Amidinylphenyl compounds and their use as fungicides” (priority 2002, published 2005):

Experiments:
Assay type in all cases: in vivo
Septoria nodorum = test: Test C: preventive spray on wheat seedlings, Septoria glume blotch, disease rating; settings: wheat seedlings sprayed to run-off, inoculated the following day with Septoria nodorum, 48 h saturated atmosphere then 9 days at 20° C.; test concentration not given
Method in brief: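 Preventive test: one day after spraying (to run-off; 200 ppm ≈ 500 g/ha, in acetone/water with 250 ppm surfactant), seedlings received a S. nodorum spore suspension. After 48 h in saturated air and 9 days in a growth chamber, both at 20° C., % disease control versus controls was scored.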

Puccinia recondita = test: Test B: preventive spray on wheat seedlings, wheat leaf rust, disease rating; settings: wheat seedlings sprayed to run-off, inoculated the following day with Puccinia recondita, 24 h saturated atmosphere then 6 days at 20° C.; test concentration not given
Method in brief: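 Preventive test: seedlings inoculated with Puccinia recondita one day after run-off spraying with test suspension (acetone/water, 250 ppm Trem 014; 200 ppm equals 500 g/ha). Rating after 24 h at 20° C in saturation plus 6 days in 20° C growth chamber; 0–100 scale versus controls.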

[1] = system: Erysiphe graminis f. sp. tritici; test: Test A: preventive spray on wheat seedlings, wheat powdery mildew, disease rating; settings: wheat seedlings sprayed to run-off, inoculated the following day with Erysiphe graminis f. sp. tritici, rated after 7 days at 20° C.; test concentration not given
Method in brief: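 Preventive test: Erysiphe graminis f. sp. tritici spore dust applied one day after run-off spraying of seedlings with acetone/water/surfactant suspension, 200 ppm equating to 500 g/ha. Plants held 7 days at 20 °C; ratings give % disease control versus controls, 100 full, 0 none.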

Compound | Test C disease control rating (100 = 100% disease control, 0 = no disease control relative to the controls) (Septoria nodorum) [%] | Test B disease control rating (100 = 100% disease control, 0 = no disease control relative to the controls) (Puccinia recondita) [%] | Test A disease control rating (100 = 100% disease control, 0 = no disease control relative to the controls) [1] [%]
C=C(CCCOc1cc(C)c(N=CN(C)C)cc1C)C(C)C [Compound 9] | 97 | 100 | 98
CCN(C)C=Nc1cc(Cl)c(OCCC[Si](C)(C)CC)cc1C [compound 57] | 100 | 100 | 100
CCCN(C)C=Nc1cc(F)c(OCCC[Si](C)(C)C)cc1C [compound 60] | 100 | 100 | 100
COC(C)(C)CCCOc1cc(C)c(N=CN(C)C)cc1C [Compound 43] | 93 | 100 | 96
Cc1cc(OCCC[Si](C)(C)C)c(C)cc1N=CN(C)C [Compound 26, N′-[2,5-Dimethyl-4-[3-(trimethylsilyl)propoxy]phenyl]-N,N-dimethylmethanimidamide] | 100 | 100 | 98
Cc1cc(OCCC(C)CCCC(C)C)c(C)cc1N=CN(C)C (stereo not drawn) [Compound 10] | 0 | 100 | 97
Cc1cc(NCCC(C)CC(C)(C)C)c(C)cc1N=CN(C)C (stereo not drawn) [compound 147] | 53 | 0 | 0
CCCCC(CCCC)Sc1cc(C)c(N=CN(C)C)cc1C [compound 155] | 95 | 23 | 0
CCCCN(C)C=Nc1cc(C(C)C)c(OCCC[Si](C)(C)C)cc1C [compound 73] | 66 | 61 | 99
C=CCN(C)C(=S)Nc1cc(Cl)c(OCCC[Si](C)(C)C)c(Cl)c1Cl [compound 83] | 0 | 9 | 0
CCN(C)C(=S)Nc1cc(C)c(OCCC[Si](C)(C)CC)cc1C [compound 77] | 100 | 100 | 100
Cc1cc(NCCCC(C)C)c(C)cc1N=CN(C)C [compound 154] | 47 | 0 | 0
CCCCCCCCCCOc1cc(C)c(N=CN(C)C)cc1C [Compound 24] | 0 | 23 | 86
CN(C)C(=S)Nc1cc(Cl)c(OCCC[Si](C)(C)C)cc1Cl [compound 183] | 90 | 85 | 99
CCN(C)C(=S)Nc1cc(C)c(OCCCC(C)C)c(Cl)c1C [compound 137] | 84 | 100 | 100
CCCCC(CCCC)Sc1cc(C)c(N=C(C)N(C)C)cc1C [compound 143] | 80 | 0 | 0

Compound | Test C disease control rating (100 = 100% disease control, 0 = no disease control relative to the controls) (Septoria nodorum) [%] | Test B disease control rating (100 = 100% disease control, 0 = no disease control relative to the controls) (Puccinia recondita) [%] | Test A disease control rating (100 = 100% disease control, 0 = no disease control relative to the controls) [1] [%]
Cc1cc(NC(=S)N(C)C)c(C)c(Cl)c1OCCC[Si](C)(C)C [compound 133] | 53 | 85 | 99
CCCCCCCOc1cc(C)c(N=CN(C)C)cc1C [Compound 21] | 96 | 100 | 98
CC(C)CCCOc1cc(Cl)c(NC(=S)N(C)C)cc1Cl [compound 123] | 100 | 46 | 54
CCN(C)C=Nc1cc(C)c(OCCC[Si](C)(C)C)c(Cl)c1C [compound 140] | 100 | 100 | 100
Cc1cc(OCCOC(C)(C)C)c(C)cc1NC(=S)N(C)C [compound 165] | 0 | 28 | 0
COC(CCCCOc1cc(C)c(N=CN(C)C)cc1C)(OC)OC [Compound 7] | 0 | 0 | 0
CC[Si](C)(CC)CCCOc1cc(C)c(N=CN(C)C)cc1C [Compound 53] | 99 | 100 | 100
CCC(CC)Oc1cc(C)c(N=CN(C)C)cc1C [Compound 34] | 0 | 100 | 96
CCCCC(CCC)Sc1cc(C)c(N=C(C)N(C)C)cc1C (stereo not drawn) [compound 142] | 53 | 0 | 0
CCN(C)C(=S)Nc1cc(C)c(OCCC[Si](C)(C)C)cc1C [compound 164] | 100 | 100 | 100
CC(=Nc1cc(Cl)c(OCCCC(C)C)c(Cl)c1C)N(C)C [compound 116] | 100 | 92 | 87
CCCCN(C)C=Nc1cc(F)c(OCCC[Si](C)(C)C)cc1C [compound 62] | 100 | 100 | 100
Cc1cc(OCCCC(C)C)c(C)cc1N=CN(C)C [Compound 13, N′-[2,5-Dimethyl-4-[(4-methylpentyl)oxy]-phenyl]-N,N-dimethylmethanimidamide] | 100 | 100 | 97
C=CCN(C)C(=S)Nc1cc(Cl)c(OCCC[Si](C)(C)C)cc1C [compound 85] | 100 | 99 | 100
Cc1cc(OCCCC(C)C)c(C)cc1NC(=S)N(C)C [compound 107] | 99 | 99 | 60
